This experiment has as its target T1, human TrkA (Homo sapiens, UniProt P04629).
T1 construct: purchased Lifetechnologies PV3144
Put plainly: Human TrkA inhibition assay. In kind it is biochemical. Conditions: human TrkA phosphorylation inhibition, ATP 500 μmol/L. How it is done:
Seven point five L per well of human TrkA (PV3144, Lifetechnologies, final concentration: 1 nmol/L) suspended in the assay buffer (100 mmol/L 4-(2-hydroxyethyl)-1-piperazineethanesulfonic acid (HEPES), 10 mmol/L magnesium chloride, 0.003 vol % Brij-35, 0.004 vol % Tween20 and 1 mmol/L dithiothreitol (DTT)) was applied in a 384 well plate and the plate was pre-incubated for 15 min at room temperature with 0.4 μL of each compound (final concentration: 200 μmol/L-0.1 nM) dissolved in DMSO. Then, fluorescent substrate (FL-peptide 27, 760424, PerkinElmer, final concentration: 1.5 μmol/L) and ATP (final concentration 500 μmol/L) dissolved in the assay buffer was added in each well. After the incubation of 120 min at 37° C., fifteen μL of termination buffer (100 mmol/L HEPES, 40 mmol/L ethylenediaminetetraacetic acid (EDTA), 10 mmol/L magnesium chloride, 0.003 vol % Brij-35, 0.004 vol % Tween20, 1 mmol/L DTT and 0.16 vol % Coating Reagent 3) was added in each well to stop the enzyme reaction. Fluorescent intensities (FI) of phosphorylated and non-phosphorylated fluorescent substrates were measured by LabChip EZReader II (Caliper LifeSciences, Inc.), and conversion ratio (CR) was calculated by the following formula-1. The CR in the well applied with DMSO alone was used as a negative control and the CR in the well without applying TrkA was used as a positive control. The inhibitory effect of each compound on TrkA phosphorylation was calculated by the following formula-2. CR (%)=(FI of phosphorylated substrate/(FI of phosphorylated substrate+FI of non-phosphorylated substrate))×100 (Formula-1) Phosphorylation inhibition (%)=(1−(CR with compound treatment−CR of positive control)/(CR of negative control−CR of positive control))×100 (Formula-2)
IC50 values (nmol/L) were determined by the logistic regression using the inhibition data in 10 points of 3-fold dilution series at a compound concentration range of 2 μmol/L to 0.1 nmol/L, or 15 points of 3-fold dilution series at the range of 200 μmol/L to 0.04 nmol/L.

44 molecules from patent US10533006B2, “Nitrogen-containing heterocycle and carbocycle derivatives having TrkA inhibitory activity” (Shionogi & Co., Ltd., priority 2016, dated 2020) can be followed below.

Like-named read-outs stand apart in the source and are kept apart here.

T1 sequence (P04629 33-796): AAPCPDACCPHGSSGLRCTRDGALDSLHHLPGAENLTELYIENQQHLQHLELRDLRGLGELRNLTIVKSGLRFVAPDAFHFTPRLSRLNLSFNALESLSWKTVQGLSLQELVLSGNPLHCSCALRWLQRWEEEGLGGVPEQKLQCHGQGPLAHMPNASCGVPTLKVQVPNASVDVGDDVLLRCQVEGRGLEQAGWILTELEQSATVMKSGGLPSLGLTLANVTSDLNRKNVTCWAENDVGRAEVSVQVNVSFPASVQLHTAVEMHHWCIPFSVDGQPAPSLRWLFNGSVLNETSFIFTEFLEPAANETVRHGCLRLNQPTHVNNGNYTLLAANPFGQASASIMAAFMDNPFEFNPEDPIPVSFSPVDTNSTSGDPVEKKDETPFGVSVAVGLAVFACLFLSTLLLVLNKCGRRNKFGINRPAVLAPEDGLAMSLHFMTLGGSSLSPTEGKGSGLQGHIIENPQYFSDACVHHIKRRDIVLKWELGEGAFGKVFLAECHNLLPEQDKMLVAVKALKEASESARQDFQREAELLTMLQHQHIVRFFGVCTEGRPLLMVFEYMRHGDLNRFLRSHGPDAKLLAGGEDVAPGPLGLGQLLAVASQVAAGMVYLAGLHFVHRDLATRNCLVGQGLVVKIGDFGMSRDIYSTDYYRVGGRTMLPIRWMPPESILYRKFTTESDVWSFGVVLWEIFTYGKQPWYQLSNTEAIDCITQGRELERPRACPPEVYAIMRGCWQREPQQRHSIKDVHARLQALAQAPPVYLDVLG

`COCC[C@@H]1C[C@@H](NC(=O)Nc2c(C)c(-c3cnc(N4CC(OC)C4)nc3)nn2-c2ccccc2)[C@H](c2ccnc(F)c2)N1C` [Compound I-180]: for the setting “read-out: IC50_nM”, the IC50 is less than 100 nM.
With `COCCN1C[C@@H](NC(=O)Nc2cc(-c3cnc4c(cnn4C)c3)nn2C)[C@H](c2ccc(F)c(F)c2)C1` [Compound I-167], the IC50 (read-out: IC50 value) amounted to 28 nM.
For the molecule `COCCN1C[C@@H](NC(=O)Nc2c(C)c(-c3ccnc(C(=O)NCC(F)(F)F)c3)nn2-c2ccccc2)[C@H](c2ccccc2)C1` (racemic) [Compound I-48], for the setting “read-out: IC50_nM”, the IC50 is less than 100 nM.
With `COCCN1C[C@@H](NC(=O)Nc2c(C)c(-c3cnc(OC)c(C(=O)N[C@@H]4CCOC4)c3)nn2-c2ccccc2)[C@H](c2ccccc2)C1` [Compound I-84], the IC50 (read-out: IC50_nM) is less than 100 nM.
In the case of `COCCN1C[C@@H](NC(=O)Nc2c(C)c(-c3ccnc(C(=O)NCCO)c3)nn2-c2ccccc2)[C@H](c2ccccc2)C1` (racemic) [Compound I-49], the IC50 (read-out: IC50_nM) was less than 100 nM.
Take `Cc1c(-c2cnn(C)c2)nn(-c2ccccc2)c1NC(=O)N[C@@H]1CN(Cc2ccccc2)C[C@H]1c1ccnc(F)c1` (racemic) [Compound I-18]: where the note is “read-out: IC50_nM”, the IC50 is more than 1000 nM.
As to `CNC(=O)c1cc(-c2nn(-c3ccccc3)c(NC(=O)N[C@@H]3CN(CCOC)C[C@H]3c3ccccc3)c2C)cnc1OCCO` (racemic) [Compound I-123], the IC50 (read-out: IC50_nM) is less than 100 nM.
Turning to `COCCN1C[C@@H](NC(=O)Nc2c(C)c(-c3ccnc(C(=O)N[C@@H]4CCOC4)c3)nn2-c2ccccc2)[C@H](c2ccccc2)C1` [Compound I-86], the IC50 (read-out: IC50_nM) is less than 100 nM.
Consider `CNC(=O)c1cc(-c2nn(-c3ccccc3)c(NC(=O)N[C@@H]3CN(CCOC)C[C@H]3c3ccccc3)c2C)cnc1OC(F)F` (racemic) [Compound I-128], for which the IC50 (read-out: IC50_nM) is less than 100 nM.
With `COCCN1C[C@@H](NC(=O)Nc2c(C)c(-c3cc(C(=O)NO)c(=O)n(C)c3)nn2-c2ccccc2)[C@H](c2ccccc2)C1` (racemic) [Compound I-139], the IC50 (read-out: IC50_nM) is less than 100 nM.
For `CNS(=O)(=O)c1cc(-c2nn(-c3ccccc3)c(NC(=O)N[C@@H]3C[C@@H](CCOC)C[C@H]3c3ccccc3)c2C)cn(C)c1=O` [Compound I-148], the IC50 (read-out: IC50_nM) was less than 100 nM.
Regarding `COCCN1C[C@@H](NC(=O)Nc2c(C)c(-c3cnc4c(cnn4C)c3)nn2-c2ccccc2)[C@H](c2ccnc(F)c2)C1` [Compound I-159], the IC50 (read-out: IC50 value) was 1 nM.
For `COCCN1C[C@@H](NC(=O)Nc2c(C)c(-c3ccnc(C(=O)N[C@@H]4CCCOC4)c3)nn2-c2ccccc2)[C@H](c2ccccc2)C1` (mixture of isomers) [Compound I-72], the IC50 (read-out: IC50_nM) was less than 100 nM.
The same measure, in the same setting: under `COCCN1C[C@@H](NC(=O)Nc2c(C)c(-c3cnc4c(c3)nnn4C)nn2-c2ccccc2)[C@H](c2ccnc(F)c2)C1` (racemic) [Compound I-105] stands less than 100 nM; under `COCC[C@@H]1C[C@@H](NC(=O)Nc2c3c(nn2-c2ccccc2)CCC3)[C@H](c2ccnc(F)c2)N1C` [Compound I-177], less than 100 nM.
Consider `CCN1CCC(NC(=O)c2ccc(-c3nn(-c4ccccc4)c(NC(=O)N[C@@H]4CN(CCOC)C[C@H]4c4ccccc4)c3C)cn2)CC1` (racemic) [Compound I-50], for which the IC50 (read-out: IC50_nM) was less than 100 nM.
With `COCC[C@@H]1C[C@@H](NC(=O)Nc2c(C)c(C)nn2-c2ccccc2)[C@H](c2ccnc(F)c2)N1C` [Compound I-178], the IC50 (read-out: IC50_nM) was less than 100 nM.
For the molecule `COCCN1C[C@@H](NC(=O)Nc2c(C)c(-c3cnc4cccnc4c3)nn2-c2ccccc2)[C@H](c2ccccc2)C1` (racemic) [Compound I-137], the IC50 (read-out: IC50_nM) is less than 100 nM.
As to `COCCN1C[C@@H](NC(=O)Nc2c(C)c(-c3cnc(OC)c(C(=O)NC4CC(F)(F)C4)c3)nn2-c2ccccc2)[C@H](c2ccccc2)C1` (racemic) [Compound I-81], the IC50 (read-out: IC50_nM) was less than 100 nM.
On to `COCCN1C[C@@H](NC(=O)Nc2c(C)c(-c3cnn(C)c3)nn2-c2ccccc2)[C@H](c2cc(F)nc(Cl)c2)C1` (racemic) [Compound I-39], for which the IC50 (read-out: IC50_nM) is less than 100 nM.
Regarding `COCCN1C[C@@H](NC(=O)Nc2c(C)c(-c3ccnc(C(=O)NC4CCCCC4)c3)nn2-c2ccccc2)[C@H](c2ccccc2)C1` (racemic) [Compound I-71], the IC50 (read-out: IC50_nM) is less than 100 nM.
The same measure, in the same setting: under `COCCN1C[C@@H](NC(=O)Nc2c(C)c(-c3cnc(OC)c(C(=O)NS(C)(=O)=O)c3)nn2-c2ccccc2)[C@H](c2ccccc2)C1` (racemic) [Compound I-147] stands less than 100 nM.
As for `COCCN1C[C@@H](NC(=O)Nc2c(C)c(-c3cnc4c(cnn4C)c3)nn2-c2ccccc2)[C@H](c2ccnc(F)c2)C1` (racemic) [Compound I-90], for the setting “read-out: IC50 value”, the IC50 came out at 2.2 nM.
As for `COCCN1C[C@@H](NC(=O)Nc2c(C)c(-c3ccnc(C(=O)NO)c3)nn2-c2ccccc2)[C@H](c2ccc(F)c(F)c2)C1` [Compound I-155], under “read-out: IC50_nM”, the IC50 is less than 100 nM.
As to `COCCN1C[C@@H](NC(=O)Nc2c(C)c(-c3cnc4c(c3)c(N=S(C)(C)=O)nn4C)nn2-c2ccccc2)[C@H](c2ccc(F)c(F)c2)C1` [Compound I-163], under “read-out: IC50_nM”, the IC50 is less than 100 nM.
Take `COCCN1C[C@@H](NC(=O)Nc2c(C)c(-c3ccc(N=S(C)(C)=O)nc3)nn2-c2ccccc2)[C@H](c2ccc(F)c(F)c2)C1` [Compound I-151]: the IC50 (read-out: IC50 value) worked out at 1.5 nM.
On to `COCCN1C[C@@H](NC(=O)Nc2c(C)c(-c3cc(C(=O)N[C@@H]4CCCOC4)c(=O)n(C)c3)nn2-c2ccccc2)[C@H](c2ccccc2)C1` (racemic) [Compound I-109], for which the IC50 (read-out: IC50_nM) was less than 100 nM.
On to `COCC[C@@H]1C[C@@H](NC(=O)Nc2c(C)c(-c3cnc4c(c3)oc(=O)n4C)nn2-c2ccccc2)[C@H](c2ccnc(F)c2)N1C` [Compound I-170], for which the IC50 (read-out: IC50_nM) is less than 100 nM.
`COCC[C@@H]1C[C@@H](NC(=O)Nc2c(C)c(-c3cnc4c(cnn4C)c3)nn2-c2ccccc2)[C@H](c2ccc(F)c(F)c2)N1C` [Compound I-172]: under “read-out: IC50 value”, the IC50 amounted to 0.94 nM.
For `COCC[C@@H]1C[C@@H](NC(=O)Nc2c(C)c(-c3cc(C(=O)O)c(=O)n(C)c3)nn2-c2ccccc2)[C@H](c2ccccc2)C1` [Compound I-149], the IC50 (read-out: IC50_nM) is less than 100 nM.
Regarding `COCCN1C[C@@H](NC(=O)Nc2c(C)c(-c3cnn(C)c3)nn2-c2ccccc2)[C@H](c2ccnc(F)c2)C1` (racemic) [Compound I-2], for the setting “read-out: IC50_nM”, the IC50 was less than 100 nM.
Take `COCCN1C[C@@H](NC(=O)Nc2c(C)c(-c3ccnc(C(=O)NC4COC4)c3)nn2-c2ccccc2)[C@H](c2ccccc2)C1` (racemic) [Compound I-69]: the IC50 (read-out: IC50_nM) is less than 100 nM.
Regarding `COCC[C@@H]1C[C@@H](NC(=O)Nc2c(C)c(-c3ccc4c(cnn4C)c3)nn2-c2ccccc2)[C@H](c2ccc(F)c(F)c2)N1` [Compound I-8], the IC50 (read-out: IC50_nM) was less than 100 nM.
The same measure, in the same setting: as for `COCCN1C[C@@H](NC(=O)Nc2c(C)c(-c3ccnc(C(N)=O)c3)nn2-c2ccccc2)[C@H](c2ccccc2)C1` (racemic) [Compound I-44], the figure is less than 100 nM.
For `COCCN1C[C@@H](NC(=O)Nc2c(C)c(-c3ccc(N=S(C)(C)=O)nc3)nn2-c2ccccc2)[C@H](c2ccccc2)C1` (racemic) [Compound I-91], the IC50 (read-out: IC50_nM) was less than 100 nM.
For the molecule `COCCN1C[C@@H](NC(=O)Nc2c(C)c(-c3cnc(OC)c(C(=O)NC4CCOCC4)c3)nn2-c2ccccc2)[C@H](c2ccccc2)C1` (racemic) [Compound I-57], the IC50 (read-out: IC50 value) was determined as 1 nM.
In the case of `CCN1CCC(NC(=O)c2ccc(-c3nn(-c4ccccc4)c(NC(=O)N[C@@H]4C[C@@H](CCOC)C[C@H]4c4ccccc4)c3C)cc2)CC1` [Compound I-24], where the note is “read-out: IC50 value”, the IC50 came out at 0.81 nM.
For `COCC[C@@H]1C[C@@H](NC(=O)Nc2c(C)c(-c3ccc4c(cnn4C)c3)nn2-c2ccccc2)[C@H](c2ccc(F)c(F)c2)C1` [Compound I-13], the IC50 (read-out: IC50_nM) is less than 100 nM.
On to `CCNC(=O)c1cc(-c2nn(-c3ccccc3)c(NC(=O)N[C@@H]3CN(CCOC)C[C@H]3c3ccccc3)c2C)cnc1OCCOC` (racemic) [Compound I-130], for which, where the note is “read-out: IC50_nM”, the IC50 was less than 100 nM.
For the molecule `COCC[C@@H]1C[C@@H](NC(=O)Nc2c(C)c(-c3ccc(O)nc3)nn2-c2ccccc2)[C@H](c2ccc(F)c(F)c2)N1C` [Compound I-14], the IC50 (read-out: IC50_nM) is less than 100 nM.
Regarding `CCNC(=O)c1cc(-c2nn(-c3ccccc3)c(NC(=O)N[C@@H]3CN(CCOC)C[C@H]3c3ccccc3)c2C)cnc1OCF` (racemic) [Compound I-132], under “read-out: IC50_nM”, the IC50 is less than 100 nM.
On to `COCC[C@@H]1C[C@@H](NC(=O)Nc2c(C)c(-c3cc(C(=O)NC4CCOCC4)c(=O)n(C)c3)nn2-c2ccccc2)[C@H](c2ccccc2)C1` [Compound I-118], for which the IC50 (read-out: IC50_nM) was less than 100 nM.
As for `COCCN1C[C@@H](NC(=O)Nc2c(C)c(-c3cnc4c(ccn4C)c3)nn2-c2ccccc2)[C@H](c2ccccc2)C1` (racemic) [Compound I-38], the IC50 (read-out: IC50_nM) is less than 100 nM.
In the case of `COCCN1C[C@@H](NC(=O)Nc2c(C)c(-c3ccnc(C(=O)NO)c3)nn2-c2ccccc2)[C@H](c2ccccc2)C1` (racemic) [Compound I-63], for the setting “read-out: IC50_nM”, the IC50 was less than 100 nM.
